One data set relates to patients with glaucoma. The data set is described as follows: Loss of IOP lowering upon cessation of chronic topical anti-glaucoma medication (Example A). It is filed as in vivo, human. The note with it: for mean IOP from baseline on day 28: day 28, after four weeks of topical medication; for mean IOP from baseline on day 30: day 30, after 2 days with no medication. An excerpt:
To examine loss or reduction of a therapeutic effect (i.e. IOP lowering) upon cessation of chronic medication administration used to treatment a chronic ocular condition, three different populations of patients with glaucoma were examined.
1. A population of twenty patients with glaucoma was examined.

For a further data set, the system named is glaucoma. The note with it: after stopping topical medication; cited from earlier work.
In data set [1] the test system is VEGF165-induced retinal vasculopathy. The data set is described as follows: Remnant effect after intravitreal triamcinolone acetonide, VEGF165-induced retinal vasculopathy (Example 9). The note with it: 48 hours after VEGF165; 4 mg TA removed after one minute. The data set is classed as in vivo, Dutch-belted rabbits. As to the method: An experiment was carried out which determined existence of a remnant effect (i.e. a therapeutic effect of the active agent when a therapeutic amount of the active agent was not longer present) of intravitreal triamcinolone. Six Dutch-belted rabbits were divided into two groups of three each. After standard pars plana vitrectomy, one group received 4 mg of the glucocorticoid triamcinolone acetonide (TA) in a 0.1 ml volume (Kenalog® 40), and the other group received 0.1 ml of a 5% PLGA (poly lactic/glycolic acid) solution. One minute later the TA or PLGA was removed with a subtotal vitrectomy and soft tip needle. Forty-eight hours after the surgery VEGF165 (500 ng/50 μl) was injected intravitreally via a 29 gauge needle to induce retinal vasculopathy and assess a pharmacological action of any remnant effect of either TA or PLGA. Assessment of retinal color fundus imaging, fluorescein angiography (FA), and fluorometry was made upon VEGF administration and 48 hours following such administration to assess leak from the retina vasculature as a result of VEGF165 administration, and the effect of either TA or PLGA on such leakage.

For data set [2] the following is noted: 0.1% ophthalmic suspension, 1 drop 4 times a day (approximately 200 μg per day); cited from earlier work.

SMILES strings stand for the structures.

With `Brc1c(NC2=NCCN2)ccc2nccnc12` [brimonidine], the “mean IOP from baseline on day 14” value with patients with glaucoma (day 14, after 14 days of topical medication) is reported as −2 mm Hg. Moreover, the “mean IOP from baseline on day 15” value in the data set with patients with glaucoma (day 15, after 24 hours with no medication) is −0.8 mm Hg. Besides, the “washout period (return to baseline IOP) of topical anti-glaucoma medication” value (shortened to “washout period (return to baseline IOP)”) in the data set with glaucoma was “two to four and five”. For the molecule `CC1(C)O[C@@H]2C[C@H]3[C@@H]4CCC5=CC(=O)C=C[C@]5(C)[C@@]4(F)[C@@H](O)C[C@]3(C)[C@]2(C(=O)CO)O1` [TA, triamcinolone acetonide], the “Fluorophotometry area under the curve, change from baseline” value in data set [1] is 3±65%.

As to `CCNC(=O)CCC/C=C\C[C@@H]1[C@@H](/C=C/[C@@H](O)CCc2ccccc2)[C@H](O)C[C@@H]1O` [Lumigan, Bimatoprost], in the data set with patients with glaucoma, the “mean IOP from baseline on day 28” value is −8 mm Hg and the “mean IOP from baseline on day 30” value is recorded as −6 mm Hg. For the molecule `CNC[C@H](O)c1ccc(O)c(O)c1` [epinephrine], the “washout period (return to baseline IOP)” value with glaucoma was “about three”.

As to `CC(C)(C)NC[C@H](O)COc1nsnc1N1CCOCC1` [timolol], in the data set with patients with glaucoma, the “mean IOP from baseline on day 28” value is on record as −4 mm Hg and the “mean IOP from baseline on day 30” value is recorded as −2 mm Hg.

Consider `CCN[C@H]1C[C@H](C)S(=O)(=O)c2sc(S(N)(=O)=O)cc21` [dorzolamide], for which, in the data set on glaucoma, the “washout period (return to baseline IOP)” value is “two to four”. Regarding `C[C@@H]1C[C@H]2[C@@H]3CCC4=CC(=O)C=C[C@]4(C)[C@@]3(F)[C@@H](O)C[C@]2(C)[C@@]1(O)C(=O)CO` [dexamethasone], the “share of the topical dose that reaches the anterior segment” value in data set [2] was “about 1%”. `CC[C@@H]1C(=O)OC[C@@H]1Cc1cncn1C` [pilocarpine]: the “washout period (return to baseline IOP)” value in the data set on glaucoma was “about 48 hours”.

The values are drawn from patent US9233071B2, “Methods for treating retinopathy with extended therapeutic effect” (Allergan, Inc., priority 2004, dated 2016).
